Active and inactive are the calls of the source. The rule behind the calls is not given here.

Data set [1] concerns A549. The data set is described as follows: Inhibition of microtubule in human A549 cells assessed as roundish cells at 0.5 uM after 1 hr by immunofluorescence analysis. It is filed as cell-based.
Data set [2] relates to A549. To be noted: Homo sapiens, at 0.5 µM.
Description: Inhibition of microtubule in human A549 cells assessed as roundish cells at 0.5 uM after 24 hrs by immunofluorescence analysis
The test system of data set [3] is A549. The following applies: Homo sapiens, at 0.5 µM. This is another data set of the same source.
Description: Inhibition of microtubule in human A549 cells assessed as network disappearane at 0.5 uM after 1 hr by immunofluorescence analysis
Data set [4] is described as follows: Chemical stability assessed as disulfide cleavage after 3 hrs by ESI-MS in presence of L-glutathione. It is filed as physicochemical.
The test system of data set [5] is A549. The data set is described as follows: Inhibition of microtubule in human A549 cells assessed as microtubule organization at 0.5 uM after 1 hr by immunofluorescence analysis. It is filed as cell-based.

What is called inhibition is how much of the control response was suppressed. Take `COc1cc([C@@H]2c3cc4c(cc3[C@H](OC(=O)CSSCC(=O)O[C@H]3c5cc6c(cc5[C@@H](c5cc(OC)c(OC)c(OC)c5)[C@H]5C(=O)OC[C@@H]53)OCO6)[C@H]3COC(=O)[C@H]23)OCO4)cc(OC)c1OC`: the inhibition in data set [1] was determined as 50%. Further, the inhibition entry in data set [2] was “Active”.
With `COc1cc2c(c(OC)c1OC)-c1ccc(SC)c(=O)cc1[C@@H](NC(=O)C(N)CSSCC(N)C(=O)N[C@H]1CCc3cc(OC)c(OC)c(OC)c3-c3ccc(SC)c(=O)cc31)CC2` (stereo partly specified), in data set [1], the inhibition worked out at 50%. The inhibition result in data set [2] is “Active”.
Take `COc1cc2c(c(OC)c1OC)-c1ccc(SC)c(=O)cc1[C@@H](NC(=O)CCSSCCC(=O)N[C@H]1CCc3cc(OC)c(OC)c(OC)c3-c3ccc(SC)c(=O)cc31)CC2`: the inhibition result in data set [3] and in data set [2] was “Active” in each case.
On to `COc1cc([C@@H]2c3cc4c(cc3[C@H](OC(=O)C(N)CSSCC(N)C(=O)O[C@H]3c5cc6c(cc5[C@@H](c5cc(OC)c(OC)c(OC)c5)[C@H]5C(=O)OC[C@@H]53)OCO6)[C@H]3COC(=O)[C@H]23)OCO4)cc(OC)c1OC` (stereo partly specified), for which the inhibition result in data set [3] and in data set [2] was “Active” in each case.
Take `COc1cc([C@@H]2c3cc4c(cc3[C@H](O)[C@H]3COC(=O)[C@H]23)OCO4)cc(OC)c1OC`: the inhibition entry in data set [3] and in data set [2] was “Active” in each case.
For the compound `COc1cc2c(c(OC)c1OC)-c1ccc(SC)c(=O)cc1[C@@H](NC(=O)CSSCC(=O)N[C@H]1CCc3cc(OC)c(OC)c(OC)c3-c3ccc(SC)c(=O)cc31)CC2`, the Stability entry in data set [4] was “Unstable”. Further, the inhibition result in data set [3] and in data set [2] was “Active” in each case.
For `COc1cc([C@@H]2c3cc4c(cc3[C@H](OC(=O)CCCSSCCCC(=O)N[C@H]3CCc5cc(OC)c(OC)c(OC)c5-c5ccc(SC)c(=O)cc53)[C@H]3COC(=O)[C@H]23)OCO4)cc(OC)c1OC`, the inhibition entry in data set [3] and in data set [2] was “Active” throughout.
Turning to `COc1cc2c(c(OC)c1OC)-c1ccc(SC)c(=O)cc1[C@@H](NC(=O)C(N)CCCCC(N)C(=O)N[C@H]1CCc3cc(OC)c(OC)c(OC)c3-c3ccc(SC)c(=O)cc31)CC2` (stereo partly specified), the inhibition entry in data set [5] was “inactive”. For the same compound, the inhibition result in data set [2] was “Active”.
`COc1cc2c(c(OC)c1OC)-c1ccc(SC)c(=O)cc1[C@@H](NC(=O)CCCCC(=O)N[C@H]1CCc3cc(OC)c(OC)c(OC)c3-c3ccc(SC)c(=O)cc31)CC2`: in data set [1], the inhibition is 50%. In data set [2], the inhibition entry is “Active”.
As to `COc1cc([C@@H]2c3cc4c(cc3[C@H](OC(=O)CCCCC(=O)O[C@H]3c5cc6c(cc5[C@@H](c5cc(OC)c(OC)c(OC)c5)[C@H]5C(=O)OC[C@@H]53)OCO6)[C@H]3COC(=O)[C@H]23)OCO4)cc(OC)c1OC`, the inhibition result in data set [5] is “inactive”. Further, the inhibition result in data set [2] was “Active”.

These data come from ChEMBL document CHEMBL1156141, “Synthesis and biological evaluation of novel thiocolchicine-podophyllotoxin conjugates” (Eur J Med Chem, 2010).
